The values below come from paper PMC10439185 (Cell Reports Medicine, 2023).

One experiment deals with T1, PPT1 (Mus musculus, UniProt O88531).
T1 sequence (O88531 28-306): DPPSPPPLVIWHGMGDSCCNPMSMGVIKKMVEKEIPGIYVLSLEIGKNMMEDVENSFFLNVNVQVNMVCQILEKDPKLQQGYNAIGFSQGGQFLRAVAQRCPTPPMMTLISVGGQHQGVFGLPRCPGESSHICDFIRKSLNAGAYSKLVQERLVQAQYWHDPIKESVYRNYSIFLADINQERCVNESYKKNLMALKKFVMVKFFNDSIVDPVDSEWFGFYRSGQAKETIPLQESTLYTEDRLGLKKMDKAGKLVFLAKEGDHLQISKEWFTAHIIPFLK
The experiment can be described thus: microscale thermophoresis. The class given is binding.

For a further experiment, the target named is T2, PPT1 (endogenous, BMDMs) (Mus musculus, UniProt O88531).
T2 sequence (O88531 28-306): T1 sequence (O88531 28-306)
Put plainly: cellular thermal shift assay, immunoblot. The following applies: intact BMDMs, 37-62 °C, 3 min. The class given is cell-based.

For `O=C(O)C(=O)Cc1ccccc1` [phenylpyruvate], the affinity on PPT1, expressed as Kd, was 863 µM. For the same compound, on PPT1 (endogenous, BMDMs), the thermal shift result is “phenylpyruvate treatment significantly changed PPT1 protein stability after heating”.
